# Structures can show the parent of a compound that is named as a salt.
# Target: recombinant CutC/D (choline TMA lyase) (Proteus mirabilis, UniProt B4EYG1)
# Test: Choline TMA lyase enzymatic activity assay (d9-choline to d9-TMA) in clarified lysate
# Type: biochemical, P. mirabilis
# Settings: clarified lysate 5 mg/mL of E. coli expressing cutC/cutD; 300 μM d9-choline; 2 hours at 22° C.; d9-TMA by mass spectrometry
# Procedure: Full-length, recombinant CutC/D was expressed through the use of competent E. coli cells transformed with the expression plasmids encoding for the cutC and cutD genes from P. mirabilis as described (Wang Z et al., Cell 2015 Dec. 17; 163(7):1585-95). CutC/D over-expressing cells were grown in nutrient-rich LB medium with the addition of ampicillin (100 μg/mL). The cell pellets were kept on ice and re-suspended in the lysis buffer: 200 mM HEPES, 50 mM NaCl, 10 mM MgCl2, pH 8.0. Clarified lysate was aliquoted and flash frozen for storage at −80° C. until use.
# Choline TMA lyase enzymatic activity assays were conducted to measure the conversion of isotope-labeled do-choline to do-TMA. Upon thawing an aliquot of frozen clarified lysate on ice and gentle mixing, clarified lysate was diluted to 5 mg/mL in lysis buffer and the necessary co-factors were added (final concentration: 1 mM SAM, 10 mM NaDT, and 2 mM NADH). Potential inhibitor compounds (typically dissolved in H2O) were serially diluted (10-fold) and added to individual reaction mixtures (done in triplicate). The mixture was then allowed to incubate for at least 15 minutes at 22° C. before the addition of substrate (300 μM final do-choline) to initiate the reaction, which was carried out for 2 hours at room temperature (22° C.) in the dark in gas tight sealed reaction vials. The reactions were quenched with the addition of 200 μL of 1 M NaOH and 0.5 μM of the internal standard ([^13C3^15N1]TMA), vortexing and placement in ice. d9-TMA production was quantified using mass spectrometry by measuring the peak area ratio of the precursor to product ion transition of d9-TMA (m/z 69→49) to the internal standard [^13C3^15N1]TMA (m/z 64→47).
# Sequence of recombinant CutC/D (choline TMA lyase) (B4EYG1 1-1142): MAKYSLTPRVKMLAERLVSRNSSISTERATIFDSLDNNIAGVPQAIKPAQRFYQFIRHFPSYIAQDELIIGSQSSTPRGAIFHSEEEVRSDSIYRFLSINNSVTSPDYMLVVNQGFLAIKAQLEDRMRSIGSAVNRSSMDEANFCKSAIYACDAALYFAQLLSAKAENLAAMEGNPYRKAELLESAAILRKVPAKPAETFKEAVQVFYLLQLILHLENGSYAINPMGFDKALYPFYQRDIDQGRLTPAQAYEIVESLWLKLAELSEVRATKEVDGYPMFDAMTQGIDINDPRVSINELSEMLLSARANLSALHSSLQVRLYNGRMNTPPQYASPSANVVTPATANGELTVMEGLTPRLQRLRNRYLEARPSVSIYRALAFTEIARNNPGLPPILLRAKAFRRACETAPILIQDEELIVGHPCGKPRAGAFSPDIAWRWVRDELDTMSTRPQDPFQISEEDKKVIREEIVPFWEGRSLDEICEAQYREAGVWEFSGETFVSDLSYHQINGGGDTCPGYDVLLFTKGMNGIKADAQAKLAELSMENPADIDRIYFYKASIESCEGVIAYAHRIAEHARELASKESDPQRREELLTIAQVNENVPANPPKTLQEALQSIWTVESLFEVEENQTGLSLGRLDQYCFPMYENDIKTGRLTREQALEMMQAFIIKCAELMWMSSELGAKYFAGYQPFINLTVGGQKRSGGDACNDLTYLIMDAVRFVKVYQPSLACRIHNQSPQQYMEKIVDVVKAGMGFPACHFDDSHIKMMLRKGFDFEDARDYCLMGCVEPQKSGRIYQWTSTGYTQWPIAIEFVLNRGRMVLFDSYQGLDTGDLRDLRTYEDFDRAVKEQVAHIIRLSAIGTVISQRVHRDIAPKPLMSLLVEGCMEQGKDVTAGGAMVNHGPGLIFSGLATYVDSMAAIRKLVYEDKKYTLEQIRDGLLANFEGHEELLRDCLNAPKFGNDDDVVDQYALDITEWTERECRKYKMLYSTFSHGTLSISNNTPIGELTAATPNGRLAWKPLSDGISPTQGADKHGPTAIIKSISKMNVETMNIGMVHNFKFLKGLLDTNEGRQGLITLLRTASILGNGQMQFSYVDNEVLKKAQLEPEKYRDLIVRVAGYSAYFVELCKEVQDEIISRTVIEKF
row,SMILES,IC50 [nM]
1,"C[N+](C)(CF)CCOC(=O)CN [Compound 1, 2-(2-Aminoacetoxy)-N-(fluoromethyl)-N,N-dimethylethanaminium dibromide]",3.2
2,"C[C@H](N)C(=O)OCC[N+](C)(C)CF [Compound 3, (S)-2-((2-Aminopropanoyl)oxy)-N-(fluoromethyl)-N,N-dimethylethanaminium dibromide]",31
3,"CC(C)[C@H](N)C(=O)OCC[N+](C)(C)CF [Compound 2, (S)-2-((2-Amino-3-methylbutanoyl)oxy)-N-(fluoromethyl)-N,N-dimethylethanaminium dibromide]",52
4,"C[N+](C)(CF)CCOC(=O)[C@@H]1CCCN1 [Compound 5, N-(fluoromethyl)-N,N-dimethyl-2-(prolyloxy)ethan-1-aminium chloride hydrochloride]",6.5
5,"C[N+](C)(CF)CCOC(=O)[C@@H](N)Cc1ccccc1 [Compound 6, 2-((L-phenylalanyl)oxy)-N-(fluoromethyl)-N,N-dimethylethan-1-aminium dibromide]",18

# From patent US20260008750A1, “COMPOUNDS, COMPOSITIONS, AND METHODS FOR REDUCING PRODUCTION OF TRIMETHYLAMINE” (The Cleveland Clinic Foundation, priority 2022, published 2026)
